By MIC50 is commonly meant the lowest concentration that inhibits either 50% of growth or 50% of the strains tested, depending on the study. Read a high MIC50 as weaker potency. As usually defined, the MIC90 is the lowest concentration that inhibits either 90% of growth or 90% of the strains tested, depending on the study.

The values that follow come from ChEMBL document CHEMBL1629631, “In vitro activities of various antifungal drugs against Aspergillus terreus: Global assessment using the methodology of the European committee on antimicrobial susceptibility testing” (2009).

Test [1] concerns Aspergillus terreus. The experiment in a line: Antimicrobial activity against Aspergillus terreus environmental isolate after 48 hrs by EUCAST test. Format: functional.
In test [2] the test system is Aspergillus terreus. The test can be described thus: Antimicrobial activity against Aspergillus terreus clinical isolate after 48 hrs by EUCAST test. Format: functional.

≈ marks a conversion by molar mass, not a printed value. Numbered stars: 1 amine (or outer) side, 2 acyl side, 3 side chain; on linkers, the order of the positions; unused ones are H or OH. Bridge positions count the residues as written; N and C are the ends. Square brackets hold non-standard residues; d marks the D form. Peptide text beside a SMILES is read from it. * marks the point of attachment. hTyr(3S-OH,4S-OH,3'-OSO3H) = N[C@H](C(=O)O)[C@H](O)[C@@H](O)c1ccc(O)c(OS(=O)(=O)O)c1; pTerphenylCO(4''-OnC5H11) = CCCCCOc1ccc(-c2ccc(-c3ccc(C(=O)*)cc3)cc2)cc1; Orn(4R-OH,5R-OH) = O=C([C@H](C[C@@H](O)[C@@H](O)N[*:3])N[*:1])[*:2]; hTyr(3S-OH,4S-OH) = N[C@H](C(=O)O)[C@H](O)[C@@H](O)c1ccc(O)cc1; Pro(3S-OH,4S-Me) = C[C@H]1CN[C@H](C(=O)O)[C@H]1O; X1 = CCCCCOc1ccc(-c2cc(-c3ccc(C(=O)*)cc3)no2)cc1; Gln(3R-OH) = NC(=O)C[C@@H](O)[C@H](N)C(=O)O; Hyp = O=C(O)[C@@H]1C[C@@H](O)CN1

As to `C[C@@H]1[C@H](O)[C@@H](C)/C=C/C=C/C=C/C=C/C=C/C=C/C=C/[C@H](O[C@@H]2O[C@H](C)[C@@H](O)[C@H](N)[C@@H]2O)C[C@@H]2O[C@](O)(C[C@@H](O)C[C@@H](O)[C@H](O)CC[C@@H](O)C[C@@H](O)CC(=O)O[C@H]1C)C[C@H](O)[C@H]2C(=O)O` [AMPHOTERICIN B], in the test with Aspergillus terreus [1], the MIC50 was determined as 2 µg/mL (≈ 2.16 µM) and the MIC90 turned out to be 2 µg/mL (≈ 2.16 µM). In addition, in the test on Aspergillus terreus [2], the MIC50 worked out at 2 µg/mL (≈ 2.16 µM) and the MIC90 came out at 2 µg/mL (≈ 2.16 µM).

Regarding `CCCCCOc1ccc(-c2ccc(-c3ccc(C(=O)N[C@H]4C[C@@H](O)[C@@H](O)NC(=O)[C@@H]5[C@@H](O)[C@@H](C)CN5C(=O)[C@H]([C@@H](C)O)NC(=O)[C@H]([C@H](O)[C@@H](O)c5ccc(O)cc5)NC(=O)[C@@H]5C[C@@H](O)CN5C(=O)[C@H]([C@@H](C)O)NC4=O)cc3)cc2)cc1` [ANIDULAFUNGIN] ({pTerphenylCO(4''-OnC5H11)}-[Orn(4R-OH,5R-OH)]T[Hyp][hTyr(3S-OH,4S-OH)]T[Pro(3S-OH,4S-Me)]; lactam 1-C), in the test with Aspergillus terreus [1], the MIC50 amounted to 0.015 µg/mL (≈ 0.0132 µM) and the MIC90 was 0.03 µg/mL (≈ 0.0263 µM). In the test on Aspergillus terreus [2], this molecule showed an MIC50 of 0.015 µg/mL (≈ 0.0132 µM) and an MIC90 of 0.03 µg/mL (≈ 0.0263 µM).

Regarding `CC[C@H](C)C[C@H](C)CCCCCCCCC(=O)N[C@H]1C[C@@H](O)[C@@H](NCCN)NC(=O)[C@@H]2[C@@H](O)CCN2C(=O)[C@H]([C@H](O)CCN)NC(=O)[C@H]([C@H](O)[C@@H](O)c2ccc(O)cc2)NC(=O)[C@@H]2C[C@@H](O)CN2C(=O)[C@H]([C@@H](C)O)NC1=O` [CASPOFUNGIN], the MIC50 against Aspergillus terreus [1] and against Aspergillus terreus [2] was 1 µg/mL (≈ 0.915 µM) throughout. The MIC90 in the test with Aspergillus terreus [1] and in the test on Aspergillus terreus [2] was 2 µg/mL (≈ 1.83 µM) each time.

As for `CCC(C)n1ncn(-c2ccc(N3CCN(c4ccc(OCC5COC(Cn6cncn6)(c6ccc(Cl)cc6Cl)O5)cc4)CC3)cc2)c1=O` (stereo unspecified) [ITRACONAZOLE], in the test with Aspergillus terreus [1], the MIC50 amounted to 0.125 µg/mL (≈ 0.177 µM) and the MIC90 turned out to be 0.5 µg/mL (≈ 0.709 µM). In the test with Aspergillus terreus [2], the MIC50 was 0.125 µg/mL (≈ 0.177 µM) and the MIC90 stood at 0.5 µg/mL (≈ 0.709 µM).

Consider `CCCCCOc1ccc(-c2cc(-c3ccc(C(=O)N[C@H]4C[C@@H](O)[C@@H](O)NC(=O)[C@@H]5[C@@H](O)[C@@H](C)CN5C(=O)[C@H]([C@H](O)CC(N)=O)NC(=O)[C@H]([C@H](O)[C@@H](O)c5ccc(O)c(OS(=O)(=O)O)c5)NC(=O)[C@@H]5C[C@@H](O)CN5C(=O)[C@H]([C@@H](C)O)NC4=O)cc3)no2)cc1` [MICAFUNGIN] (X1-[Orn(4R-OH,5R-OH)]T[Hyp][hTyr(3S-OH,4S-OH,3'-OSO3H)][Gln(3R-OH)][Pro(3S-OH,4S-Me)]; lactam 1-C), for which, in the test on Aspergillus terreus [1], the MIC50 stood at 0.015 µg/mL (≈ 0.0118 µM) and the MIC90 is 0.03 µg/mL (≈ 0.0236 µM). In the test with Aspergillus terreus [2], this molecule returned an MIC50 of 0.015 µg/mL (≈ 0.0118 µM) and an MIC90 of 0.03 µg/mL (≈ 0.0236 µM).

In the test on Aspergillus terreus [1], `CC[C@@H]([C@H](C)O)n1ncn(-c2ccc(N3CCN(c4ccc(OC[C@@H]5CO[C@@](Cn6cncn6)(c6ccc(F)cc6F)C5)cc4)CC3)cc2)c1=O` [POSACONAZOLE] registered an MIC50 of 0.12 µg/mL (≈ 0.171 µM) and an MIC90 of 0.12 µg/mL (≈ 0.171 µM). Moreover, in the test on Aspergillus terreus [2], the MIC50 worked out at 0.12 µg/mL (≈ 0.171 µM) and the MIC90 was 0.12 µg/mL (≈ 0.171 µM).

In the test on Aspergillus terreus [1], `C[C@@H](c1nc(-c2ccc(C#N)cc2)cs1)[C@](O)(Cn1cncn1)c1ccc(F)cc1F` [RAVUCONAZOLE] had an MIC50 of 1 µg/mL (≈ 2.29 µM) and an MIC90 of 2 µg/mL (≈ 4.57 µM). In addition, in the test on Aspergillus terreus [2], the MIC50 was 1 µg/mL (≈ 2.29 µM) and the MIC90 was 2 µg/mL (≈ 4.57 µM).

In the test with Aspergillus terreus [1], `CN(C/C=C/C#CC(C)(C)C)Cc1cccc2ccccc12` [TERBINAFINE] registered an MIC50 of 0.25 µg/mL (≈ 0.858 µM) and an MIC90 of 0.5 µg/mL (≈ 1.72 µM). In the test with Aspergillus terreus [2], the MIC50 was 0.25 µg/mL (≈ 0.858 µM) and the MIC90 came to 0.5 µg/mL (≈ 1.72 µM).

In the test on Aspergillus terreus [1], `C[C@@H](c1ncncc1F)[C@](O)(Cn1cncn1)c1ccc(F)cc1F` [VORICONAZOLE] returned an MIC50 of 1 µg/mL (≈ 2.86 µM) and an MIC90 of 2 µg/mL (≈ 5.73 µM). In the test on Aspergillus terreus [2], this molecule came in with an MIC50 of 1 µg/mL (≈ 2.86 µM) and an MIC90 of 2 µg/mL (≈ 5.73 µM).
